Measured values: ChEMBL document CHEMBL1201862, “PubChem BioAssay data set” (2004)
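In this assay, cells in 96-well plates receive the compound at five concentrations for 48 hours. Endpoints are linearly interpolated between the surrounding concentrations. Here, GI50 denotes the concentration required for 50% inhibition of growth.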 Active and inactive are the calls of the source. No stated cut-off is given here; in the data, active = GI50 up to about 1.1 µM and inactive = higher.

What was measured:
Experiment in all cases: NCI-60 cell line screen, 48 h
[1] = test system: SK-OV-3
[2] = test system: SF-268
[3] = test system: UACC-257
[4] = test system: HL-60
[5] = test system: SN12C
[6] = test system: KM12
[7] = test system: HT-29
[8] = test system: SF-295
[9] = test system: SR
[10] = test system: NCI-H460
[11] = test system: HOP-62
[12] = test system: LOX IMVI
[13] = test system: HCT-116
[14] = test system: RXF 393
[15] = test system: HCC 2998
[16] = test system: IGROV-1
[17] = test system: SNB-19
[18] = test system: UACC-62
[19] = test system: OVCAR-4

Compound: COC(=O)CC(=O)C[P+](c1ccccc1)(c1ccccc1)c1ccccc1
- GI50 [1]: > 218 µM (inactive)
- GI50 [2]: > 218 µM (inactive)
- GI50 [3]: 114 µM (inactive)
- GI50 [4]: 48.9 µM (inactive)
- GI50 [5]: 95.3 µM (inactive)
- GI50 [6]: > 218 µM (inactive)
- GI50 [7]: 121 µM (inactive)
- GI50 [8]: 116 µM (inactive)
- GI50 [9]: 58.1 µM (inactive)
- GI50 [10]: 148 µM (inactive)
- GI50 [11]: > 218 µM (inactive)
- GI50 [12]: > 218 µM (inactive)
- GI50 [13]: 60.7 µM (inactive)
- GI50 [14]: > 218 µM (inactive)
- GI50 [15]: > 218 µM (inactive)
- GI50 [16]: > 218 µM (inactive)
- GI50 [17]: > 218 µM (inactive)
- GI50 [18]: 178 µM (inactive)

Compound: CCOC(=O)NN1C(=O)C(=P(c2ccccc2)(c2ccccc2)c2ccccc2)C(C(=O)OCC)=C1C
- GI50 [1]: > 100 µM (inactive)
- GI50 [2]: > 100 µM (inactive)
- GI50 [3]: > 100 µM (inactive)
- GI50 [4]: > 100 µM (inactive)
- GI50 [5]: > 100 µM (inactive)
- GI50 [6]: > 100 µM (inactive)
- GI50 [7]: > 100 µM (inactive)
- GI50 [8]: > 100 µM (inactive)
- GI50 [9]: > 100 µM (inactive)
- GI50 [10]: > 100 µM (inactive)
- GI50 [11]: > 100 µM (inactive)
- GI50 [12]: > 100 µM (inactive)
- GI50 [13]: > 100 µM (inactive)
- GI50 [19]: > 100 µM (inactive)
- GI50 [14]: > 100 µM (inactive)
- GI50 [15]: > 100 µM (inactive)
- GI50 [16]: > 100 µM (inactive)
- GI50 [17]: > 100 µM (inactive)
- GI50 [18]: > 100 µM (inactive)

Compound: COC(=O)C1=C(O)C(O)=C(C(=O)OC)C1
- GI50 [1]: > 100 µM (inactive)
- GI50 [2]: > 100 µM (inactive)
- GI50 [3]: > 100 µM (inactive)
- GI50 [4]: > 100 µM (inactive)
- GI50 [5]: > 100 µM (inactive)
- GI50 [6]: > 100 µM (inactive)
- GI50 [7]: > 100 µM (inactive)
- GI50 [8]: > 100 µM (inactive)
- GI50 [10]: > 100 µM (inactive)
- GI50 [11]: > 100 µM (inactive)
- GI50 [12]: > 100 µM (inactive)
- GI50 [13]: > 100 µM (inactive)
- GI50 [19]: > 100 µM (inactive)
- GI50 [14]: > 100 µM (inactive)
- GI50 [15]: > 100 µM (inactive)
- GI50 [16]: > 100 µM (inactive)
- GI50 [17]: > 100 µM (inactive)
- GI50 [18]: 0.612 µM (active)

Compound: CCOC(=O)C1Nc2ccccc2[C@H]2OCC[C@@H]12 (stereo partly drawn)
- GI50 [1]: > 100 µM (inactive)
- GI50 [2]: > 100 µM (inactive)
- GI50 [3]: > 100 µM (inactive)
- GI50 [4]: > 100 µM (inactive)
- GI50 [5]: > 100 µM (inactive)
- GI50 [6]: > 100 µM (inactive)
- GI50 [7]: > 100 µM (inactive)
- GI50 [8]: > 100 µM (inactive)
- GI50 [10]: > 100 µM (inactive)
- GI50 [11]: > 100 µM (inactive)
- GI50 [12]: > 100 µM (inactive)
- GI50 [13]: > 100 µM (inactive)
- GI50 [19]: > 100 µM (inactive)
- GI50 [14]: > 100 µM (inactive)
- GI50 [15]: > 100 µM (inactive)
- GI50 [16]: > 100 µM (inactive)
- GI50 [17]: > 100 µM (inactive)
- GI50 [18]: > 100 µM (inactive)
